From patent US9783590B2 (priority 2003, dated 2017)

Legend:
human subjects = experiment: PTC phenotype determination (blinded sorting taste threshold test); type: in vivo
From the text: Subjects began tasting a solution of 1 micromolar PTC (solution #14) and proceeded in 2-fold increasing concentration increments (solutions 13, 12, 11 . . . ) until a bitter taste was perceived. Subjects then performed a blinded sorting test containing 3 cups of PTC solution and 3 cups of water. Raw taste threshold was the most dilute solution at which the subject could correctly sort all 6 cups. We also included a quinine threshold measurement according to Blakeslee & Salmon (Proc. Natl. Acad. Sci. USA 21, 84, 1935) to identify and exclude individuals with general deficits in bitter taste (aguesia). For dichotomous assignment of phenotype, we considered individuals unable to taste PTC before solution #6, i.e. at concentrations less than 267 micromolar PTC, to be non-tasters. Although the classic method includes corrections for age and sex, analysis of our raw PTC taste threshold data indicated only a modest sex effect, with females more sensitive than males (p=0.00324, proportion of variance explained=5.1%). No effect of age on PTC scores was observed. As a result, raw PTC threshold scores were used for all analyses.
The Utah C.E.P.H. families were enrolled in conjunction with the Utah Genetic Reference Project under University of Utah IRB approved protocol #6090-96, and consisted of individuals of Northern European ancestry. Subjects in the NIH replication sample were enrolled under NIH/NINDS IRB approved protocol # DC-01-230, and were of European, Asian, African American, and Native American ancestry. Human Diversity Panel DNAs (sub-Saharan African, Asian, and Southwest Native American) and primate DNAs were obtained from the Coriell Cell Repository, Camden, N.J. The Utah sample consists of 27 families comprising 269 individuals; both haplotype and phenotype information was available for 180 of these individuals. The NIH replication sample of consisted of 85 unrelated individuals of known haplotype and phenotype; 51 were European, 5 Pakistani, 23 East Asian, and 6 African-American. One African-American is not considered in the analysis due to a rare AAV/AAI diplotype. H is raw PTC score is 7.

T2R16 = biological target: T1, T2R16 (Homo sapiens, UniProt Q9NYV7); conditions: in vitro cell based assays, Bufe et al. 2002; cited from earlier work
T1 sequence (Q9NYV7 1-291): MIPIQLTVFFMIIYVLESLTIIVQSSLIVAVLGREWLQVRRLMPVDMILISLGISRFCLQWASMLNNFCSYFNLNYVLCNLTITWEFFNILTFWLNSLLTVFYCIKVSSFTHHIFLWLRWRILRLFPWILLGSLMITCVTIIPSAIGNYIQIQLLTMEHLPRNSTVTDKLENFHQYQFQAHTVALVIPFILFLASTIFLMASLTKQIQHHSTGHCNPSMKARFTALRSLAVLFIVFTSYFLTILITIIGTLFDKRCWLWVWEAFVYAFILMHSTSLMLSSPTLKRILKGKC

## NC(=S)Nc1ccccc1 [PTC, phenylthiocarbamide]
Human subjects; AVI homozygotes, NIH sample
  mean PTC score: 1.86
Human subjects; AVI homozygotes, Utah sample
  mean PTC score: 4.31
Human subjects; PAV heterozygotes, NIH sample
  mean PTC score: 8.81
Human subjects; PAV heterozygotes, Utah sample
  mean PTC score: 9.65
Human subjects; PAV homozygotes, NIH sample
  mean PTC score: 10.00
Human subjects; PAV homozygotes, Utah sample, score = number of most dilute solution correctly sorted (#14 = 1 micromolar, 2-fold steps)
  mean PTC score: 10.69
Human subjects; one subject, AAV/AAI diplotype, NIH sample
  raw PTC score: 7

## OCc1ccccc1O[C@@H]1O[C@H](CO)[C@@H](O)[C@H](O)[C@H]1O [salicin]
T2R16
  receptor response to tastant: responds
